Results reported in US9090586B2, “Heterocyclic compound” (TAKEDA PHARMACEUTICAL COMPANY LIMITED, priority 2010, dated 2015).

What was measured:
human PDE10A enzyme = biological target: T1, human PDE10A enzyme (Homo sapiens, UniProt Q9Y233); assay: PDE10A enzyme activity inhibition test (SPA); assay type: biochemical; conditions: for inhibition at 0.1 µM: 100 nM compound, read-out: Inhibition rate (%) (100 nM); for IC50: [3H]cGMP substrate
T1 construct: Human PDE10A full-length gene was transfected into Sf9 or COS-7 cells; His-tag; made in house; host or cells: Sf9 or COS-7 cells
Protocol: Human PDE10A full-length gene was transfected into Sf9 or COS-7 cells, the cells were disrupted and centrifuged, and human PDE10A enzyme was obtained from the residue. The enzyme extracted from Sf9 cells was partially purified using His-tag affinity column. The enzyme was stored at −70° C. until use. The PDE activity was measured using an SPA (Scintillation Proximity Assay) (GE Healthcare). To measure the inhibitory activity of the compound, 10 μL of serially diluted compound was reacted with 20 μL of PDE enzyme in an assay buffer (50 mM HEPES-NaOH, 8.3 mM MgCl2, 1.7 mM EGTA, 0.1% BSA (pH 7.4)) […] at room temperature. The final concentration of DMSO in the reaction mixture was 1 percent. The compounds were evaluated in duplicate in 96-well half-area plates (Corning). To start the reaction, 10 μL of substrate [^3H] cGMP (25 and 50 nM; GE Healthcare and PerkinElmer, respectively) was added to 40 μL. After 60 min of reaction at room temperature, yttrium SPA beads containing zinc sulphate were added (6 mg/mL, 20 μL) to terminate the PDE reaction. After standing still for 1 hr, the measurement was performed using a scintillation counter (PerkinElmer) and the PDE10A enzyme activity inhibition rate was calculated. The inhibition rate was calculated based on the control containing enzyme and DMSO as 0% and the control without enzyme as 100%.

T1 sequence (Q9Y233 267-1055): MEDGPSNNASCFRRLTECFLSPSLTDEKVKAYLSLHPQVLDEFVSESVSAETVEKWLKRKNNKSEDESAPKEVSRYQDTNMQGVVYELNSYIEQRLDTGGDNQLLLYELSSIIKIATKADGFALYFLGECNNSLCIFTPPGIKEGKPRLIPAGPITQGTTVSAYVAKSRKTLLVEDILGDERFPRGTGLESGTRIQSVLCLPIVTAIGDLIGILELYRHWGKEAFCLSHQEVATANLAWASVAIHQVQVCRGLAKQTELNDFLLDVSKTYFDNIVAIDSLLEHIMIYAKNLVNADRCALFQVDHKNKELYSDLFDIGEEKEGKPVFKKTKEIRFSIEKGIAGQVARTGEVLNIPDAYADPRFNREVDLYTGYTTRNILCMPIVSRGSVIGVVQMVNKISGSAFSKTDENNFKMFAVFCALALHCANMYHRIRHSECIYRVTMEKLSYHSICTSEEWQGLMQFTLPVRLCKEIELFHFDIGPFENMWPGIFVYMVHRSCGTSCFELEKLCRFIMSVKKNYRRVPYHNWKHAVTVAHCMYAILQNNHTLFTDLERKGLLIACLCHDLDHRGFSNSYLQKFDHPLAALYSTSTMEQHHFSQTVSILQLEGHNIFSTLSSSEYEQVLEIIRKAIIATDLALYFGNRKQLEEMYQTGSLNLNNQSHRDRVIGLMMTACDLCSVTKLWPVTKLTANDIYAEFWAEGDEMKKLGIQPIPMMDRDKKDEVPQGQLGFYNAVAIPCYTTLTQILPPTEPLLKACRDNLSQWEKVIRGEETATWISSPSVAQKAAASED

SMILES | melting point [°C] | inhibition at 0.1 µM (human PDE10A enzyme) [%] | IC50 (human PDE10A enzyme) [nM]
COc1cn(-c2ccc(-n3cc(F)c(F)c3)cc2O)nc(-c2ccnn2-c2ccccc2)c1=O [Example 11, 1-[4-(3,4-difluoro-1H-pyrrol-1-yl)-2-hydroxyphenyl]-5-methoxy-3-(1-phenyl-1H-pyrazol-5-yl)pyridazin-4(1H)-one] | 241 to 243 | – | –
COc1nc(-n2cc(F)c(F)c2)ccc1-n1cc(OC)c(=O)c(-c2ccnn2-c2ccccc2)n1 [Example 53, 1-[6-(3,4-difluoro-1H-pyrrol-1-yl)-2-methoxypyridin-3-yl]-5-methoxy-3-(1-phenyl-1H-pyrazol-5-yl)pyridazin-4(1H)-one] | – | 97 | ≤ 10
COc1cn(-c2nccs2)nc(-c2ccnn2-c2ccccc2)c1=O [Example 27, 5-methoxy-3-(1-phenyl-1H-pyrazol-5-yl)-1-(1,3-thiazol-2-yl)pyridazin-4(1H)-one] | – | 98 | ≤ 10
COc1cc(-n2cc(F)c(F)c2)ccc1-n1cc(OC)c(=O)c(-c2ccnn2-c2ccccc2)n1 [Example 12, 1-[4-(3,4-difluoro-1H-pyrrol-1-yl)-2-methoxyphenyl]-5-methoxy-3-(1-phenyl-1H-pyrazol-5-yl)pyridazin-4(1H)-one] | – | 100 | ≤ 10
COc1cn(-c2ccc(-n3cccn3)cc2F)nc(-c2ccnn2CC(F)(F)F)c1=O [Example 6, 1-[2-fluoro-4-(1H-pyrazol-1-yl)phenyl]-5-methoxy-3-[1-(2,2,2-trifluoroethyl)-1H-pyrazol-5-yl]pyridazin-4(1H)-one] | 185 to 187 | – | –
